Patent US12435031B2, “Compound with broad-spectrum antibacterial activity and its antibacterial composition” (CHINA AGRICULTURAL UNIVERSITY, priority 2023, dated 2025)
Converted amounts (≈) assume the structure as drawn. Where two headings read alike, the source gives them in different places.

How the values were obtained:
[1] = system: Clostridium perfringens; assay: microbe, parasite or virus in culture; format: cell-based; settings: for MIC50 / MIC90 / MIC: Clostridium perfringens
[2] = system: Enterococcus; assay: microbe, parasite or virus in culture; format: cell-based; settings: read-out: MICs
[3] = read-out: MIC value against Clostridium perfringens, strain A3-1 (A-type)
[4] = read-out: MIC value against Clostridium perfringens, strain A3-2 (A-type)
[5] = read-out: MIC value against Clostridium perfringens, strain A57-1 (A-type)
[6] = read-out: MIC value against Clostridium perfringens, strain B4 (B-type)
[7] = read-out: MIC value against Clostridium perfringens, strain B5 (B-type)
[8] = read-out: MIC value against Clostridium perfringens, strain C3 (C-type)
[9] = read-out: MIC value against Clostridium perfringens, strain C8 (C-type)
[10] = read-out: MIC value against Clostridium perfringens, strain C59-1 (C-type)
[11] = read-out: MIC value against Clostridium perfringens, strain D14B (D-type)
[12] = read-out: MIC value against Clostridium perfringens, strain F5-2 (F-type)
[13] = read-out: MIC value against Clostridium perfringens, strain F6-1 (F-type)
[14] = read-out: MIC value against Clostridium perfringens, strain F6-2 (F-type)
[15] = read-out: MIC value against Clostridium perfringens, strain F6-2-1 (F-type)
[16] = read-out: MIC value against Clostridium perfringens, strain F6-2-2 (F-type)
[17] = read-out: MIC value against Clostridium perfringens, strain F7-1 (F-type)
[18] = read-out: MIC value against Clostridium perfringens, strain F8-1 (F-type)
[19] = read-out: MIC value against Clostridium perfringens, strain H12-1 (H-type)
[20] = read-out: MIC value against Clostridium perfringens, strain H12-2 (H-type)
[21] = read-out: MIC value against Clostridium perfringens, strain H13-1 (H-type)
[22] = read-out: MIC value against Clostridium perfringens, strain H14-1 (H-type)
[23] = read-out: MIC value against Clostridium perfringens, strain H14-2 (H-type)
[24] = read-out: MIC value against Clostridium perfringens, strain H14-4 (H-type)
[25] = read-out: MIC value against Clostridium perfringens, strain H15-1 (H-type)
[26] = read-out: MIC value against Clostridium perfringens, strain H15-2 (H-type)
[27] = read-out: MIC value against Clostridium perfringens, strain H15-3 (H-type)
[28] = read-out: MIC value against Clostridium perfringens, strain H16 (H-type)

## CC[C@H]1OC(=O)C[C@@H](O)[C@H](C)[C@@H](O[C@@H]2O[C@H](C)[C@@H](O)[C@H](N(C)C)[C@H]2O)[C@@H](CCN2C[C@H](C)C[C@H](C)C2)C[C@@H](C)C(=O)/C=C/C(C)=C/[C@@H]1CO[C@@H]1O[C@H](C)[C@@H](O)[C@@H](OC)[C@H]1OC [TMS, Tilmicosin]
[1]
  MIC50: 128 µg/mL (≈ 147 µM)
  MIC90: > 128 µg/mL
[1]; [3]
  MIC: 4 µg/mL (≈ 4.6 µM)
[1]; [4]
  MIC: 2 µg/mL (≈ 2.3 µM)
[1]; [5]
  MIC: 4 µg/mL (≈ 4.6 µM)
[1]; [6]
  MIC: > 128 µg/mL
[1]; [7]
  MIC: > 128 µg/mL
[1]; [8]
  MIC: > 128 µg/mL
[1]; [9]
  MIC: > 128 µg/mL
[1]; [10]
  MIC: 2 µg/mL (≈ 2.3 µM)
[1]; [11]
  MIC: 128 µg/mL (≈ 147 µM)
[1]; [12]
  MIC: 128 µg/mL (≈ 147 µM)
[1]; [13]
  MIC: 128 µg/mL (≈ 147 µM)
[1]; [14]
  MIC: 128 µg/mL (≈ 147 µM)
[1]; [15]
  MIC: > 128 µg/mL
[1]; [16]
  MIC: 128 µg/mL (≈ 147 µM)
[1]; [17]
  MIC: 64 µg/mL (≈ 73.6 µM)
[1]; [18]
  MIC: 128 µg/mL (≈ 147 µM)
[1]; [19]
  MIC: 4 µg/mL (≈ 4.6 µM)
[1]; [20]
  MIC: 4 µg/mL (≈ 4.6 µM)
[1]; [21]
  MIC: 4 µg/mL (≈ 4.6 µM)
[1]; [22]
  MIC: 128 µg/mL (≈ 147 µM)
[1]; [23]
  MIC: 128 µg/mL (≈ 147 µM)
[1]; [24]
  MIC: 128 µg/mL (≈ 147 µM)
[1]; [25]
  MIC: 4 µg/mL (≈ 4.6 µM)
[1]; [26]
  MIC: 128 µg/mL (≈ 147 µM)
[1]; [27]
  MIC: 4 µg/mL (≈ 4.6 µM)
[1]; [28]
  MIC: 128 µg/mL (≈ 147 µM)

## O=C(Nc1ccc(Cl)c(C(F)(F)F)c1Cl)c1cc(Cl)ccc1O [BAB160]
[1]
  MIC50: 8 µg/mL (≈ 20.8 µM)

## CC(=O)NC[C@H]1CN(c2ccc(N3CCOCC3)c(F)c2)C(=O)O1 [linezolid]
[2]
  MIC: 1 µg/mL (≈ 2.96 µM)

## Penicillin
[1]; strain A3-1 (A-type)
  MIC value against Clostridium perfringens: 0.25 µg/mL
[1]; strain A3-2 (A-type)
  MIC value against Clostridium perfringens: 0.5 µg/mL
[1]; strain A57-1 (A-type)
  MIC value against Clostridium perfringens: 0.25 µg/mL
[1]; strain B4 (B-type)
  MIC value against Clostridium perfringens: 0.5 µg/mL
[1]; strain B5 (B-type)
  MIC value against Clostridium perfringens: 0.5 µg/mL
[1]; strain C3 (C-type)
  MIC value against Clostridium perfringens: 2 µg/mL
[1]; strain C8 (C-type)
  MIC value against Clostridium perfringens: 0.25 µg/mL
[1]; strain C59-1 (C-type)
  MIC value against Clostridium perfringens: 0.125 µg/mL
[1]; strain D14B (D-type)
  MIC value against Clostridium perfringens: 0.5 µg/mL
[1]; strain F5-2 (F-type)
  MIC value against Clostridium perfringens: 0.125 µg/mL
[1]; strain F6-1 (F-type)
  MIC value against Clostridium perfringens: 0.25 µg/mL
[1]; strain F6-2 (F-type)
  MIC value against Clostridium perfringens: 0.125 µg/mL
[1]; strain F6-2-1 (F-type)
  MIC value against Clostridium perfringens: 0.25 µg/mL
[1]; strain F6-2-2 (F-type)
  MIC value against Clostridium perfringens: 0.25 µg/mL
[1]; strain F7-1 (F-type)
  MIC value against Clostridium perfringens: 0.5 µg/mL
[1]; strain F8-1 (F-type)
  MIC value against Clostridium perfringens: 0.25 µg/mL
[1]; strain H12-1 (H-type)
  MIC value against Clostridium perfringens: 0.25 µg/mL
[1]; strain H12-2 (H-type)
  MIC value against Clostridium perfringens: 0.125 µg/mL
[1]; strain H13-1 (H-type)
  MIC value against Clostridium perfringens: 0.0625 µg/mL
[1]; strain H14-1 (H-type)
  MIC value against Clostridium perfringens: 0.25 µg/mL
[1]; strain H14-2 (H-type)
  MIC value against Clostridium perfringens: 1 µg/mL
[1]; strain H14-4 (H-type)
  MIC value against Clostridium perfringens: 0.125 µg/mL
[1]; strain H15-1 (H-type)
  MIC value against Clostridium perfringens: 0.25 µg/mL
[1]; strain H15-2 (H-type)
  MIC value against Clostridium perfringens: 0.25 µg/mL
[1]; strain H15-3 (H-type)
  MIC value against Clostridium perfringens: 0.25 µg/mL
[1]; strain H16 (H-type)
  MIC value against Clostridium perfringens: 0.125 µg/mL

## C[C@H]1c2cccc(O)c2C(=O)C2=C(O)[C@]3(O)C(=O)C(C(N)=O)=C(O)[C@@H](N(C)C)[C@@H]3[C@@H](O)[C@@H]21 [DOX, Doxycycline]
[1]
  MIC50: 8 µg/mL (≈ 18 µM)
  MIC90: 16 µg/mL (≈ 36 µM)
[1]; [3]
  MIC: 8 µg/mL (≈ 18 µM)
[1]; [4]
  MIC: 8 µg/mL (≈ 18 µM)
[1]; [5]
  MIC: ≤ 0.25 µg/mL
[1]; [6]
  MIC: 2 µg/mL (≈ 4.5 µM)
[1]; [7]
  MIC: 8 µg/mL (≈ 18 µM)
[1]; [8]
  MIC: 16 µg/mL (≈ 36 µM)
[1]; [9]
  MIC: ≤ 0.25 µg/mL
[1]; [10]
  MIC: ≤ 0.25 µg/mL
[1]; [11]
  MIC: 1 µg/mL (≈ 2.25 µM)
[1]; [12]
  MIC: 4 µg/mL (≈ 9 µM)
[1]; [13]
  MIC: 32 µg/mL (≈ 72 µM)
[1]; [14]
  MIC: 16 µg/mL (≈ 36 µM)
[1]; [15]
  MIC: 16 µg/mL (≈ 36 µM)
[1]; [16]
  MIC: 16 µg/mL (≈ 36 µM)
[1]; [17]
  MIC: 8 µg/mL (≈ 18 µM)
[1]; [18]
  MIC: 16 µg/mL (≈ 36 µM)
[1]; [19]
  MIC: 4 µg/mL (≈ 9 µM)
[1]; [20]
  MIC: 4 µg/mL (≈ 9 µM)
[1]; [21]
  MIC: 8 µg/mL (≈ 18 µM)
[1]; [22]
  MIC: 8 µg/mL (≈ 18 µM)
[1]; [23]
  MIC: 8 µg/mL (≈ 18 µM)
[1]; [24]
  MIC: 4 µg/mL (≈ 9 µM)
[1]; [25]
  MIC: 16 µg/mL (≈ 36 µM)
[1]; [26]
  MIC: 16 µg/mL (≈ 36 µM)
[1]; [27]
  MIC: 8 µg/mL (≈ 18 µM)
[1]; [28]
  MIC: 8 µg/mL (≈ 18 µM)

## O=C(Nc1cc(Cl)cc(Br)c1)c1cc(Cl)ccc1O [BAB142]
[1]
  MIC50: 16 µg/mL (≈ 44.3 µM)
